Results on eleven compounds are retold here after patent US4382089A, “Antibacterial amide compounds, compositions thereof and methods of using them” (Warner-Lambert Company, priority 1982, dated 1983).

Common to all, as to test: Antibacterial activity in vitro, Minimal Inhibitory Concentration
What all share (format): cell-based

The subject of one assay is Pseudo. Aeru BRK. From the text:
(§1) The compounds of the invention are new chemical compounds that are used as pharmacological agents and especially as broad spectrum antibacterial agents. They are active in vitro against strains of both gram-positive and gram-negative bacteria. The activity of the compounds is illustrated by the results shown in the table for certain of the preferred compounds.

The next assay concerns Pseudo. Aeru 28.
Text: as §1

A further assay concerns Entero C. IMM-11.
Text: as §1

For another assay, the system named is Staph Aureus UC-76.
Text: as §1

The next assay has as its system Pseudo. Aeru UI-18.
Text: as §1

A further assay deals with Prot. Vulg. 1810.
Text: as §1

The test system of another assay is Serr. Mar. IMM-16.
Text: as §1

The next assay concerns E. Coli Brig.
Text: as §1

The test system of another assay is Klebs. Pneu. MGH-2.
Text: as §1

In a further assay the test system is E. Coli Vogel.
Text: as §1

Consider `CC1(C)S[C@@H]2[C@H](NC(=O)[C@H](NC(=O)c3cc4cc(NC(=O)NCC(N)=O)ccc4[nH]c3=O)c3ccc(O)cc3)C(=O)N2[C@H]1C(=O)O` [N-[3-[1,2-dihydro-2-oxo-6-(5-oxo-2-pyrrolidinyl)amino]-quinolinylcarbonyl]amoxicillin], for which the “Minimal Inhibitory Concentration” value in the assay on Pseudo. Aeru BRK stood at 1.6 µg/mL; with Pseudo. Aeru 28, 1.6 µg/mL; with Entero C. IMM-11, 3.1 µg/mL; in the assay with Staph Aureus UC-76, 1.6 µg/mL.

`CC1(C)SC2C(NC(=O)C(NC(=O)c3c[nH]c4ccc(NC(=O)C5CCC(=O)N5)cc4c3=O)c3ccc(O)cc3)C(=O)N2C1C(=O)O` (centres unmarked) [N-[1,4-Dihydro-4-oxo-6[[(5-oxo-2-pyrrolidinyl)carbonyl]-amino]-3-quinolinylcarbonyl]amoxicillin]: the “Minimal Inhibitory Concentration” value with Pseudo. Aeru UI-18 worked out at 1.6 µg/mL; in the assay with Pseudo. Aeru BRK, 3.1 µg/mL; in the assay on Pseudo. Aeru 28 it was 3.1 µg/mL; in the assay on Prot. Vulg. 1810, 1.6 µg/mL; in the assay with Serr. Mar. IMM-16, 6.3 µg/mL; with E. Coli Brig, 6.3 µg/mL. Also, the “Minimal Inhibitory Concentration” value in the assay on Klebs. Pneu. MGH-2 stood at 12.5 µg/mL; in the assay on Entero C. IMM-11, 3.1 µg/mL; with E. Coli Vogel it was 1.6 µg/mL; in the assay on Staph Aureus UC-76, 1.6 µg/mL.

Turning to `CC(=O)N1CC(O)CC1C(=O)Nc1ccc2c(=O)c(C(=O)NC(C(=O)NC3C(=O)N4C3SC(C)(C)C4C(=O)O)c3ccc(O)cc3)c[nH]c2c1` (centres unmarked) [N-[7-[[(1-Acetyl-4-hydroxy-2-pyrrolidinyl)carbonyl]-amino]-1,4-dihydro-4-oxo-3-quinolinecarbonyl]amoxicillin], the “Minimal Inhibitory Concentration” value is 3.1 µg/mL in the assay on Pseudo. Aeru UI-18; 3.1 µg/mL in the assay on Pseudo. Aeru BRK; 3.1 µg/mL in the assay on Pseudo. Aeru 28; 0.8 µg/mL with Prot. Vulg. 1810; 6.3 µg/mL with Serr. Mar. IMM-16; 12.5 µg/mL in the assay on E. Coli Brig. For the same compound, the “Minimal Inhibitory Concentration” value amounted to 12.5 µg/mL with Klebs. Pneu. MGH-2, 6.3 µg/mL in the assay with Entero C. IMM-11, 3.1 µg/mL with E. Coli Vogel and 1.6 µg/mL with Staph Aureus UC-76.

With `CC(=O)NC(C)C(=O)Nc1ccc2[nH]cc(C(=O)NC(C(=O)NC3C(=O)N4C3SC(C)(C)C4C(=O)O)c3ccc(O)cc3)c(=O)c2c1` (centres unmarked) [N-[6-[[2-(Acetylamino)-1-oxopropyl]amino]-1,4-dihydro-4-oxo-3-quinolinylcarbonyl]amoxicillin], the “Minimal Inhibitory Concentration” value with Pseudo. Aeru UI-18 stood at 1.6 µg/mL; with Pseudo. Aeru BRK, 1.6 µg/mL; with Pseudo. Aeru 28, 0.4 µg/mL; in the assay on Prot. Vulg. 1810, 0.8 µg/mL; with Serr. Mar. IMM-16, 3.1 µg/mL; in the assay with E. Coli Brig it was 3.1 µg/mL. Also, the “Minimal Inhibitory Concentration” value in the assay on Klebs. Pneu. MGH-2 amounted to 6.3 µg/mL; in the assay on Entero C. IMM-11, 3.1 µg/mL; with E. Coli Vogel, 0.4 µg/mL; with Staph Aureus UC-76, 1.6 µg/mL.

`CC(=O)N1CCCC1C(=O)Nc1ccc2[nH]c(=O)c(C(=O)NC(C(=O)NC3C(=O)N4C3SC(C)(C)C4C(=O)O)c3ccc(O)cc3)cc2c1` (centres unmarked) [N-[6-[[(1-Acetyl-2-pyrrolidinyl)carbonyl]amino]-1,2-dihydro-2-oxo-3-quinolinylcarbonyl]amoxicillin]: the “Minimal Inhibitory Concentration” value in the assay on Pseudo. Aeru UI-18 was determined as 1.6 µg/mL; with Pseudo. Aeru BRK it was 1.6 µg/mL; in the assay with Pseudo. Aeru 28, 1.6 µg/mL; in the assay on Prot. Vulg. 1810, 0.8 µg/mL; in the assay on Serr. Mar. IMM-16, 12.5 µg/mL; in the assay with E. Coli Brig, 3.1 µg/mL. Besides, the “Minimal Inhibitory Concentration” value with Klebs. Pneu. MGH-2 stood at 25 µg/mL; with Entero C. IMM-11 it was 3.1 µg/mL; in the assay on E. Coli Vogel it was 0.2 µg/mL; in the assay with Staph Aureus UC-76 it was 0.8 µg/mL.

In the case of “N-[1,4-Dihydro-4-oxo-7-[[(5-oxo-2-pyrrolidinyl)carbonyl]-amino]-3-quinolinylcarbonyl]amoxicillin”, the “Minimal Inhibitory Concentration” value with Pseudo. Aeru UI-18 is 3.1 µg/mL; in the assay with Pseudo. Aeru BRK, 0.4 µg/mL; in the assay with Pseudo. Aeru 28 it was 0.8 µg/mL; in the assay with Prot. Vulg. 1810, 0.8 µg/mL; in the assay with Serr. Mar. IMM-16, 1.6 µg/mL; in the assay with E. Coli Brig, 3.1 µg/mL. Besides, the “Minimal Inhibitory Concentration” value was found to be 3.1 µg/mL with Klebs. Pneu. MGH-2, 3.1 µg/mL with Entero C. IMM-11, 0.4 µg/mL with E. Coli Vogel and 0.8 µg/mL in the assay on Staph Aureus UC-76.

`CC(=O)NC(C)C(=O)Nc1ccc2[nH]c(=O)c(C(=O)NC(C(=O)NC3C(=O)N4C3SC(C)(C)C4C(=O)O)c3ccc(O)cc3)cc2c1` (centres unmarked) [N-[6-[[(2-Acetylamino)-1-oxopropyl]amino]-1,2-dihydro-2-oxo-3-quinolinylcarbonyl]amoxicillin]: the “Minimal Inhibitory Concentration” value stood at 1.6 µg/mL with Pseudo. Aeru UI-18; 1.6 µg/mL in the assay with Pseudo. Aeru BRK; 1.6 µg/mL in the assay with Pseudo. Aeru 28; 3.1 µg/mL in the assay with Prot. Vulg. 1810; 12.5 µg/mL with Serr. Mar. IMM-16; 6.3 µg/mL in the assay with E. Coli Brig. For the same compound, the “Minimal Inhibitory Concentration” value in the assay with Klebs. Pneu. MGH-2 was found to be 12.5 µg/mL; in the assay with Entero C. IMM-11, 6.3 µg/mL; with E. Coli Vogel, 1.6 µg/mL; in the assay with Staph Aureus UC-76 it was 1.6 µg/mL.

Turning to `CC(=O)N1CC(O)CC1C(=O)Nc1ccc2[nH]c(=O)c(C(=O)NC(C(=O)NC3C(=O)N4C3SC(C)(C)C4C(=O)O)c3ccc(O)cc3)cc2c1` (centres unmarked) [N-[6-[[(1-Acetyl-4-hydroxy-2-pyrrolidinyl)carbonyl]-amino]-1,2-dihydro-2-oxo-3-quinolinylcarbonyl]amoxicillin], the “Minimal Inhibitory Concentration” value in the assay with Pseudo. Aeru UI-18 worked out at 1.6 µg/mL; in the assay with Pseudo. Aeru BRK it was 3.1 µg/mL; in the assay on Pseudo. Aeru 28 it was 1.6 µg/mL; in the assay with Prot. Vulg. 1810, 3.1 µg/mL; in the assay with Serr. Mar. IMM-16 it was 25 µg/mL; in the assay on E. Coli Brig, 12.5 µg/mL. Further, the “Minimal Inhibitory Concentration” value came to 25 µg/mL with Klebs. Pneu. MGH-2, 6.3 µg/mL with Entero C. IMM-11, 6.3 µg/mL in the assay with E. Coli Vogel and 0.8 µg/mL in the assay with Staph Aureus UC-76.

As for `CC(=O)N1CCCC1C(=O)Nc1ccc2[nH]cc(C(=O)NC(C(=O)NC3C(=O)N4C3SC(C)(C)C4C(=O)O)c3ccc(O)cc3)c(=O)c2c1` (centres unmarked) [N-[6-[[(1-Acetyl-2-pyrrolidinyl)carbonyl]amino]-1,4-dihydro-4-oxo-3-quinolinylcarbonyl]amoxicillin], the “Minimal Inhibitory Concentration” value with Pseudo. Aeru UI-18 was 3.1 µg/mL; in the assay with Pseudo. Aeru BRK, 3.1 µg/mL; in the assay on Pseudo. Aeru 28, 3.1 µg/mL; in the assay with Prot. Vulg. 1810, 0.8 µg/mL; in the assay on Serr. Mar. IMM-16, 6.3 µg/mL; in the assay on E. Coli Brig it was 6.3 µg/mL. Further, the “Minimal Inhibitory Concentration” value is 6.3 µg/mL in the assay on Klebs. Pneu. MGH-2, 6.3 µg/mL with Entero C. IMM-11, 0.2 µg/mL in the assay on E. Coli Vogel and 3.1 µg/mL with Staph Aureus UC-76.

`CC1(C)SC2C(NC(=O)C(NC(=O)c3c[nH]c4c(NC(=O)C5CCC(=O)N5)cccc4c3=O)c3ccc(O)cc3)C(=O)N2C1C(=O)O` (centres unmarked) [N-[1,4-Dihydro-4-oxo-8-[[(5-oxo-2-pyrrolidinyl)carbonyl]-amino]-3-quinolinylcarbonyl]amoxicillin]: the “Minimal Inhibitory Concentration” value in the assay with Pseudo. Aeru UI-18 is 3.1 µg/mL; in the assay with Pseudo. Aeru BRK it was 1.6 µg/mL; in the assay on Pseudo. Aeru 28 it was 0.8 µg/mL; with Prot. Vulg. 1810, 3.1 µg/mL; in the assay on Serr. Mar. IMM-16, 12.5 µg/mL; in the assay with E. Coli Brig, 6.3 µg/mL. The “Minimal Inhibitory Concentration” value worked out at 12.5 µg/mL in the assay with Klebs. Pneu. MGH-2, 6.3 µg/mL in the assay on Entero C. IMM-11, 3.1 µg/mL in the assay with E. Coli Vogel and 1.6 µg/mL in the assay with Staph Aureus UC-76.

As for `CC(=O)NC(C)C(=O)Nc1ccc2c(=O)c(C(=O)NC(C(=O)NC3C(=O)N4C3SC(C)(C)C4C(=O)O)c3ccc(O)cc3)c[nH]c2c1` (centres unmarked) [N-[7-[[2-(Acetylamino)-1-oxopropyl]amino]-1,4-dihydro-4-oxo-3-quinolinylcarbonyl]amoxicillin], the “Minimal Inhibitory Concentration” value in the assay on Pseudo. Aeru UI-18 is “.6 µg/mL”; with Pseudo. Aeru BRK it was 1.6 µg/mL; in the assay on Pseudo. Aeru 28 it was 1.6 µg/mL; in the assay with Prot. Vulg. 1810 it was 0.8 µg/mL; with Serr. Mar. IMM-16, 6.3 µg/mL; with E. Coli Brig it was 3.1 µg/mL. For the same compound, the “Minimal Inhibitory Concentration” value in the assay on Klebs. Pneu. MGH-2 stood at 6.3 µg/mL; with Entero C. IMM-11 it was 3.1 µg/mL; with E. Coli Vogel, 0.2 µg/mL; in the assay with Staph Aureus UC-76, 0.8 µg/mL.
